Activity calls are given as the source filed them. The calls are words filed in the database; no cut-off is given here.
Experiments:
[1] = target: T1, Estrogen receptor (Rattus norvegicus) (UniProt P06211+Q62986); assay: Displacement of [3H]estradiol from rat estrogen receptor; increased estrogenic activity; type: protein assay
[2] = target: T1, Estrogen receptor (Rattus norvegicus); assay: Antagonistic effect against estradiol benzoate induced uterine weight gain in immature rats at 1E-6M; increased estrogenic activity; type: functional; set-up: scale not given: the % may be the effect or the level left
[3] = target: T1, Estrogen receptor (Rattus norvegicus); assay: Displacement of [3H]estradiol from rat estrogen receptor; modest estrogenic activity; type: protein assay
[4] = target: T1, Estrogen receptor (Rattus norvegicus); assay: Antagonistic effect on estradiol benzoate induced uterine weight gain in immature rats at 1E-6M; type: functional; set-up: scale not given: the % may be the effect or the level left
[5] = target: T1, Estrogen receptor (Rattus norvegicus); assay: Displacement of [3H]estradiol from rat estrogen receptor; inactive; type: protein assay

COc1ccc(/C(=C(/c2ccccc2)[N+](=O)[O-])c2ccc(OCCN3CCCC3=O)cc2)cc1
Activity [1]: Active | Activity [2]: 43%

COc1ccc(/C(=C(/c2ccccc2)[N+](=O)[O-])c2ccc(OCCN3CCCC3)cc2)cc1
Activity [3]: Weak activity | Activity [4]: 11%

COc1ccc(C(C(=O)c2ccccc2)c2ccc(OCCN3CCCC3)cc2)cc1 (stereo not given)
Activity [5]: inactive

Source: ChEMBL document CHEMBL1122409, “Estrogen receptor binding and estrogenic/antiestrogenic effects of two new metabolites of nitromiphene, 2-[p-[2-nitro-1-(4-methoxyphenyl)-2-phenylvinyl]phenoxy]-N-ethylpyrrolidine” (J Med Chem, 1983)
